From paper PMC9025336 (Antibiotics, 2022)
Converted amounts (≈) assume the structure as drawn. Peptide text beside a SMILES is read from it. * marks the point of attachment. Orn(α-tetramethylguanidino) = CN(C)C(=N[C@@H](CCCN)C(=O)*)N(C)C

What was measured:
[1] = system: 70S ribosome, ribosomal binding site of Api88; assay: Fluorescence polarization competition with cf-Api88; set-up: species or system Escherichia coli; settings: Figure S3, twice in triplicate
Procedure: Ki was determined for ribosome extracts using cf-labeled and unlabeled peptides in ribosome preparation buffer. Black 384-well plates were prepared as described above. Unlabeled peptides or antibiotics (20 µL, 656 µmol/L) were added and 2-fold serially diluted in 23 wells in ribosome preparation buffer. A ribosome solution was prepared by adjusting the ribosome concentration to ~90% of the upper Kd plateau obtained for the cf-labeled peptide to be studied and added to each well (10 µL). After incubation (28 ± 1 °C, 90 min), the cf-labeled peptide (10 µL, 80 nmol/L) was added and incubated (28 ± 1 °C, 90 min). The fluorescence polarization was measured on a […] microplate reader in the top read position (λexc = 485 nm, λem = 535 nm) in triplicate on at least two different days. Data were fitted to a nonlinear, dose–response logistical transition equation [y= y0 + a/(1 + (x/x0)b)] using the Levenberg–Marquardt algorithm, with the half-maximal inhibition constants (IC50) represented by the x0 coefficients (GraphPad Prism for Windows v. 5.02, San Diego, CA, USA). Inhibition constants, Ki, were calculated as described by Mathias and Jung.
Pept ide Concent r at ion [ nM]
Figure S3. Fluorescence polarization assay testing Api88 an d Api137 in competition with cf-Api88 and cf-Api137, respectively, for the corresponding ribosomal binding sites. Experiments were done twice in triplicates. […]

[2] = system: E. coli BL21 (DE3) sbmA::Tn10^Cm + psbmA_A31G/G219T; format: cell-based, Escherichia coli
Procedure: (§1) The minimal inhibitory concentrations (MIC) were determined at least twice in triplicate using a liquid broth microdilution assay in sterile 96-well plates and a total volume of 100 μL per well. Aqueous peptide solutions were serially 2-fold diluted in 25% MHBII or 33% TSB medium in a volume of 50 µL. An overnight culture was diluted in 25% MHBII or 33% TSB medium to 1.5 × 10^7 CFU/mL, and an aliquot of 50 μL was added to each well. The final cell count in each well was 7.5 × 10^6 CFU/mL. The plates were incubated at 37 °C for 20 ± 2 h. The turbidity of each well was measured at a wavelength of 600 nm. The MIC was defined as the lowest peptide concentration where the turbidity was identical to medium only.
(§2) E. coli strain BL21(DE3) was randomly mutagenized by Tn10 insertion using the lambda phage lysate λNK1324 carrying a chloramphenicol resistance and grown on LB agar plates in the presence of chloramphenicol (15 µg/mL) at 30 °C overnight. The resistant colonies were transferred to 25% MHBII agar plates containing Api137 (32 or 64 µg/mL) and incubated again at 37 °C overnight. Genomic DNA was isolated by a Monarch® Genomic DNA purification kit (New England Biolabs, Frankfurt am Main, Germany) from the presumed double-resistant strains, and the sequences flanking the transposon insertion were determined by arbitrary primed PCR using arbitrary primer ARB6 and Tn10 transposon-specific primer IS10-R complementary to the IS10 element of Tn10 transposon. The first round of amplification included six cycles of denaturation (95 °C, 30 s), annealing (30 °C, 30 s), and extension (72 °C, 90 s), followed by 30 cycles of denaturation (95 °C, 30 s), annealing (45°C, 30 s), and extension (72 °C, 2 min), as well as a final extension (72 °C, 6 min). The second round of amplification used arbitrary primer ARB2 and primer IS10-R. The PCR consisted of 30 cycles of denaturation (95 °C, 30 s), annealing (52 °C, 30 s), and extension (72 °C, 2 min), followed by a final extension step (72 °C, 6 min). PCR products were purified with the NucleoSpin® Gel and a PCR cleanup kit (Macherey-Nagel, Düren, Germany) and sequenced using primer IS10-R (Eurofins MWG Operon, Ebersberg, Germany), and the corresponding protein was identified in a sequence database (UniProt and NCBI, 2021).

[3] = system: E. coli BL21 (DE3) sbmA::Tn10^Cm + psbmA; format: cell-based, Escherichia coli
Procedure: as §1, §2

in vitro = settings: E. coli BW25113 lysate
Procedure: Peptides (7.5 µg) were mixed with lysates of E. coli Rosetta pLysS or E. coli BW25113 (protein concentration ~0.5 g/L) and incubated on an orbital shaker (37 °C, 750 rpm). After 0, 4, 8 and 24 h, aliquots were taken in duplicate or triplicate, and trichloroacetic acid was added to achieve a final concentration of 3% (v/v). Samples were incubated on ice (10 min) and centrifuged (13,000× g, 5 min). The supernatant was neutralized with aqueous sodium hydroxide (1 mol/L) and stored at −20 °C. Samples were separated on an ACQUITY arc system (Waters GmbH, Eschborn, Germany) using a Jupiter C18 column (ID: 2 mm). Elution was achieved using a linear aqueous acetonitrile gradient containing 0.1% (v/v) formic acid. The absorbance was recorded on a 2489 UV/VIS detector at 214 nm (Waters GmbH), and mass spectra were acquired online with an ion trap mass spectrometer equipped with an electrospray ionization source (ESI-IT-MS, Esquire HCT, Bruker Daltonics, Billerica, MA, USA). Peptide recoveries and the corresponding metabolites were calculated based on the peak areas (UV) of the initial peptide peak area at 0 min.

[4] = 25% MHBII containing IPTG (0.1 mmol/L)
[5] = 33% TSB containing IPTG (0.1 mmol/L)

## CC[C@H](C)[C@H](NC(=O)[C@H](Cc1ccc(O)cc1)NC(=O)[C@@H](NC(=O)[C@@H]1CCCN1C(=O)[C@H](CCCNC(=N)N)NC(=O)[C@H](CC(N)=O)NC(=O)[C@H](CC(N)=O)NC(=O)[C@H](CCCN)N=C(N(C)C)N(C)C)C(C)C)C(=O)N1CCC[C@H]1C(=O)N[C@@H](CCCNC(=N)N)C(=O)N1CCC[C@H]1C(=O)N[C@@H](CCCNC(=N)N)C(=O)N1CCC[C@H]1C(=O)N1CCC[C@H]1C(=O)N[C@@H](Cc1c[nH]cn1)C(=O)N1CCC[C@H]1C(=O)N[C@@H](CCCNC(=N)N)C(=O)N[C@@H](CC(C)C)C(N)=O [Api88] ({Orn(α-tetramethylguanidino)}-NNRPVYIPRPRPPHPRL-NH2)
[1]
  inhibition of the binding of cf-labeled Api88: did not inhibit

## CC[C@H](C)[C@H](NC(=O)[C@H](Cc1ccc(O)cc1)NC(=O)[C@@H](NC(=O)[C@@H]1CCCN1C(=O)[C@H](CCCNC(=N)N)NC(=O)[C@H](CC(N)=O)NC(=O)[C@H](CC(N)=O)NC(=O)[C@H](CCCN)N=C(N(C)C)N(C)C)C(C)C)C(=O)N1CCC[C@H]1C(=O)N[C@@H](CCCNC(=N)N)C(=O)N1CCC[C@H]1C(=O)N[C@@H](CCCNC(=N)N)C(=O)N1CCC[C@H]1C(=O)N1CCC[C@H]1C(=O)N[C@@H](Cc1c[nH]cn1)C(=O)N1CCC[C@H]1C(=O)N[C@@H](CCCNC(=N)N)C(=O)N[C@@H](CC(C)C)C(=O)O [Api137] ({Orn(α-tetramethylguanidino)}-NNRPVYIPRPRPPHPRL-OH)
[2]; [4]
  MIC, 25% MHBII: 4 µg/mL (≈ 1.75 µM)
[2]; [5]
  MIC, 33% TSB: 8 µg/mL (≈ 3.49 µM)
[3]; [4]
  MIC, 25% MHBII: 8 µg/mL (≈ 3.49 µM)
[3]; [5]
  MIC, 33% TSB: 8 µg/mL (≈ 3.49 µM)

## CC[C@H](C)[C@H](NC(=O)[C@@H]1CCCN1C(=O)[C@H](CCCNC(=N)N)NC(=O)[C@H](CC(N)=O)NC(=O)[C@H](CC(N)=O)NC(=O)CN)C(=O)N[C@@H](Cc1ccc(O)cc1)C(=O)N[C@H](C(=O)N1CCC[C@H]1C(=O)N[C@@H](CCCNC(=N)N)C(=O)N1CCC[C@H]1C(=O)N[C@@H](CCCNC(=N)N)C(=O)N1CCC[C@H]1C(=O)N1CCC[C@H]1C(=O)N[C@@H](Cc1c[nH]cn1)C(=O)N1CCC[C@H]1C(=O)N[C@@H](CCCNC(=N)N)C(=O)N1CCC[C@H]1C(=O)N[C@H](C(=O)N[C@@H](CCCNC(=N)N)C(=O)N[C@H](C(=O)O)C(C)C)[C@@H](C)CC)[C@@H](C)CC [Api805] (H-GNNRPIYIPRPRPPHPRPIRV-OH; N-terminus assumed)
In vitro
  half-life: > 24 h
